Experimental data published in patent US20260083851A1 (AVILAR THERAPEUTICS, INC., priority 2022, published 2026).
Positions of bridges follow the written chain, without caps; N, C: chain ends. Non-standard residues stand in square brackets, D forms with d. Residues, ends and D or L forms follow the SMILES beside them. ξ: configuration not given here. Pro(4S-NH2) = N[C@@H]1CN[C@H](C(=O)O)C1; ξPro(4-NH2) = NC1CNC(C(=O)O)C1

Biological target: T1, ASGP receptor (biotinylated ASGPR) (Homo sapiens, UniProt P07306)
T1 construct: biotin (biotinylated)
T1 sequence (P07306 1-291): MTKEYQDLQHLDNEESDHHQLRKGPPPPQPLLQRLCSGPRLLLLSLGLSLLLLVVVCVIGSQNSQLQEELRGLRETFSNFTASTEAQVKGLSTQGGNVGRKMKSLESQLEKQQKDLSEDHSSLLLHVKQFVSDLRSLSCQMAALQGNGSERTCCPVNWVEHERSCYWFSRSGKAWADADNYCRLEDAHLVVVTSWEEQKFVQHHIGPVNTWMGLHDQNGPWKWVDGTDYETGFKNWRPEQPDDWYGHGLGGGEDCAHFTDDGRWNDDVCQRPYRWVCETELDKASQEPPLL
Assay: not given
Format: binding
Conditions: SPR, Biacore 8K, 25° C.; Table 1A; read-out: ASGPR KD

SMILES | Kd [µM]
O=C(NC[C@H]1OC[C@H](Nc2cncc(C(F)(F)F)n2)[C@@H](O)[C@H]1O)c1cnc(-c2ccccc2)nc1 [A89] | < 10
NCCOCCOCCOC[C@H]1OC[C@H](Nc2cncc(C(F)(F)F)n2)[C@@H](O)[C@H]1O [A53, (2R,3R,4R,5S)-2-((2-(2-(2-aminoethoxy)ethoxy)ethoxy)methyl)-5-((6-(trifluoromethyl)pyrazin-2-yl)amino)tetrahydro-2H-pyran-3,4-diol] | < 10
O=C(O)CNC(COCCC(=O)NCCOCCOCCOCCO[C@@H]1O[C@H](CO)[C@H](O)[C@H](O)[C@H]1Nc1cncc(C(F)(F)F)n1)COCCC(=O)NCCOCCOCCOCCO[C@@H]1O[C@H](CO)[C@H](O)[C@H](O)[C@H]1Nc1cncc(C(F)(F)F)n1 [A35, (1,35-bis(((2R,3R,4R,5R,6R)-4,5-dihydroxy-6-(hydroxymethyl)-3-((6-(trifluoromethyl)pyrazin-2-yl)amino)tetrahydro-2H-pyran-2-yl)oxy)-13,23-dioxo-3,6,9,16,20,27,30,33-octaoxa-12,24-diazapentatriacontan-18-yl)glycine] | < 10

Same assay, conditions: SPR, Biacore 8K, 25° C.; Table 1B, numeric bound; read-out: ASGPR Kd

SMILES | Kd [µM]
OC[C@H]1OC[C@H](N(CC2CC2)CC2CC2)[C@@H](O)[C@H]1O [A160, (2R,3R,4R,5S)-5-(bis(cyclopropylmethyl)amino)-2-(hydroxymethyl)tetrahydro-2H-pyran-3,4-diol] | > 30

Same assay, conditions: SPR, Biacore 8K, 25° C.; Table 1C; read-out: ASGPR KD

SMILES | Kd [µM]
O[C@@H]1[C@@H](Nc2cccc(C(F)(F)F)n2)[C@H]2OC[C@](COc3cnccn3)(O2)[C@@H]1O [A296] | < 10
C#C[C@H]1O[C@H](C)[C@H](O)[C@H](O)[C@H]1Oc1cccc(C(F)(F)F)n1 [A214, (2R,3R,4S,5R,6R)-6-ethynyl-2-methyl-5-((6-(trifluoromethyl)pyridin-2-yl)oxy)tetrahydro-2H-pyran-3,4-diol] | < 10
O=C(O)c1cnc(OC[C@H]2OC[C@H](Nc3cncc(C(F)(F)F)n3)[C@@H](O)[C@H]2O)nc1 [A194, 2-(((2R,3R,4R,5S)-3,4-dihydroxy-5-((6-(trifluoromethyl)pyrazin-2-yl)amino)tetrahydro-2H-pyran-2-yl)methoxy)pyrimidine-5-carboxylic acid] | < 10
CC(C)(C)OC(=O)N1CCC(Cc2ccc(OC[C@H]3OC[C@H](Oc4cccc(C(F)(F)F)n4)[C@@H](O)[C@H]3O)nn2)C1 (stereo partly drawn) [A294] | < 10
C[C@H]1O[C@H](C#CCOc2cccnn2)[C@H](Oc2cccc(C(F)(F)F)n2)[C@@H](O)[C@H]1O [A319] | < 10

Same assay, conditions: SPR, Biacore 8K, 25° C.; Table 1D; read-out: ASGPR KD

SMILES | Kd [µM]
O=C(OCc1ccccc1)N1C[C@H](Nc2ccnc(C(F)(F)F)n2)[C@@H](O)[C@@H](O)C1 [A375] | < 10

Same assay, conditions: SPR, Biacore 8K, 25° C.; Table 1E; read-out: ASGPR KD

SMILES | Kd [µM]
C[C@H]1O[C@H](c2nc(-c3ccccc3)no2)[C@H](Oc2cccc(C(F)(F)F)n2)[C@@H](O)[C@H]1O [A451] | < 10

Biological target: IgG
Assay: IgG SPR binding
Conditions: second table, read-out: IgG KD

SMILES | Kd [nM]
CC(C)C[C@@H]1NC(=O)[C@H](Cc2cnc[nH]2)NC(=O)[C@H](Cc2c[nH]c3ccccc23)NC(=O)[C@H](C)NC(=O)[C@@H]2CSSC[C@H](NC(=O)[C@H](Cc3c[nH]c4ccccc34)NC(=O)[C@H](C(C)C)NC(=O)[C@H](CC(C)C)NC(=O)[C@H](CCC(=O)N(C)C)NC(=O)CNC1=O)C(=O)N[C@@H]([C@@H](C)O)C(=O)N1CCC[C@@H]1C(=O)N1C[C@@H](N)C[C@H]1C(=O)N[C@@H](CC(=O)O)C(=O)N2 [compound 65] | < 100
CC(C)CC1NC(=O)C(Cc2cnc[nH]2)NC(=O)C(Cc2c[nH]c3ccccc23)NC(=O)C(C)NC(=O)C2CSSCC(NC(=O)C(Cc3c[nH]c4ccccc34)NC(=O)C(C(C)C)NC(=O)C(CC(C)C)NC(=O)C(CCC(=O)N(C)C)NC(=O)CNC1=O)C(=O)NC(C(C)O)C(=O)N1CCCC1C(=O)N1CC(N)CC1C(=O)NC(CC(N)=O)C(=O)N2 (stereo not drawn) [compound 69] (cyclo(GE(NMe2)LVWCTP[ξPro(4-NH2)]NCAWHL); disulfide 6-11; configuration not given here) | < 100
CC(C)C[C@@H]1NC(=O)[C@H](C)NC(=O)CNC(=O)[C@H](CC(C)C)NC(=O)[C@H](Cc2cnc[nH]2)NC(=O)[C@H](Cc2c[nH]c3ccccc23)NC(=O)[C@H](C)NC(=O)[C@@H]2CSSC[C@H](NC(=O)[C@H](Cc3c[nH]c4ccccc34)NC(=O)[C@H](C(C)C)NC1=O)C(=O)N[C@@H]([C@@H](C)O)C(=O)N1CCC[C@@H]1C(=O)N1C[C@@H](N)C[C@H]1C(=O)N[C@@H](C)C(=O)N2 [compound 67] (cyclo(ACAWHLGALVWCT[dP][Pro(4S-NH2)]); disulfide 2-12) | < 100
CC(C)CC1NC(=O)C(Cc2cnc[nH]2)NC(=O)C(Cc2c[nH]c3ccccc23)NC(=O)C(C)NC(=O)C2CSSCC(NC(=O)C(Cc3c[nH]c4cc(Cl)ccc34)NC(=O)C(C(C)C)NC(=O)C(CC(C)C)NC(=O)C(CCC(=O)O)NC(=O)CNC1=O)C(=O)NC(C(C)O)C(=O)N1CCCC1C(=O)N1CC(N)CC1C(=O)NC(CC(=O)O)C(=O)N2 (stereo not drawn) [compound 61] | < 100
CC(C)C[C@@H]1NC(=O)[C@H](Cc2cnc[nH]2)NC(=O)[C@H](Cc2c[nH]c3ccccc23)NC(=O)[C@H](C)NC(=O)[C@@H]2CSSC[C@H](NC(=O)[C@H](Cc3c[nH]c4ccccc34)NC(=O)[C@H](C(C)C)NC(=O)[C@H](CC(C)C)NC(=O)[C@H](CCC(=O)N(C)C)NC(=O)CNC1=O)C(=O)N[C@@H]([C@@H](C)O)C(=O)N1CCC[C@@H]1C(=O)N1C[C@@H](N)C[C@H]1C(=O)N[C@@H](C)C(=O)N2 [compound 68] | < 100
CC(C)CC1NC(=O)C(Cc2cnc[nH]2)NC(=O)C(Cc2c[nH]c3ccccc23)NC(=O)C(C)NC(=O)C2CSSCC(NC(=O)C(Cc3c[nH]c4ccccc34)NC(=O)C(C(C)C)NC(=O)C(CC(C)C)NC(=O)C(CCC(=O)O)NC(=O)CNC1=O)C(=O)NC(C(C)O)C(=O)N1CCCC1C(=O)N1CC(N)CC1C(=O)NC(C)C(=O)N2 (stereo not drawn) [compound 54] (cyclo(GELVWCTP[ξPro(4-NH2)]ACAWHL); disulfide 6-11; configuration not given here) | < 100
CC(C)C[C@@H]1NC(=O)[C@H](C)NC(=O)CNC(=O)[C@H](CC(C)C)NC(=O)[C@H](Cc2cnc[nH]2)NC(=O)[C@H](Cc2c[nH]c3ccccc23)NC(=O)[C@H](C)NC(=O)[C@@H]2CSSC[C@H](NC(=O)[C@H](Cc3c[nH]c4ccccc34)NC(=O)[C@H](C(C)C)NC1=O)C(=O)N[C@@H]([C@@H](C)O)C(=O)N1CCC[C@@H]1C(=O)N1C[C@@H](N)C[C@H]1C(=O)N[C@@H](CC(N)=O)C(=O)N2 [compound 70] (cyclo(ALVWCT[dP][Pro(4S-NH2)]NCAWHLG); disulfide 5-10) | < 100
CC(C)CC1NC(=O)C(C)NC(=O)CNC(=O)C(CC(C)C)NC(=O)C(Cc2cnc[nH]2)NC(=O)C(Cc2c[nH]c3ccccc23)NC(=O)C(C)NC(=O)C2CSSCC(NC(=O)C(Cc3c[nH]c4ccccc34)NC(=O)C(C(C)C)NC1=O)C(=O)NC(C(C)O)C(=O)N1CCCC1C(=O)N1CC(N)CC1C(=O)NC(CC(=O)O)C(=O)N2 (stereo not drawn) [compound 59] (cyclo(GALVWCTP[ξPro(4-NH2)]DCAWHL); disulfide 6-11; configuration not given here) | < 100
CC(C)CC1NC(=O)C(Cc2cnc[nH]2)NC(=O)C(Cc2c[nH]c3ccccc23)NC(=O)C(C)NC(=O)C2CSSCC(NC(=O)C(Cc3c[nH]c4ccccc34)NC(=O)C(C(C)C)NC(=O)C(CC(C)C)NC(=O)C(CCC(=O)O)NC(=O)CNC1=O)C(=O)NC(C(C)O)C(=O)N1CCCC1C(=O)N1CC(N)CC1C(=O)NC(CC(=O)O)C(=O)N2 (stereo not drawn) [compound 58] | < 100
CC(C)C[C@@H]1NC(=O)[C@H](Cc2cnc[nH]2)NC(=O)[C@H](Cc2c[nH]c3ccccc23)NC(=O)[C@H](C)NC(=O)[C@@H]2CSSC[C@H](NC(=O)[C@H](Cc3c[nH]c4ccccc34)NC(=O)[C@H](C(C)C)NC(=O)[C@H](CC(C)C)NC(=O)[C@H](CCC(=O)O)NC(=O)CNC1=O)C(=O)N[C@@H]([C@@H](C)O)C(=O)N1CCC[C@@H]1C(=O)N1C[C@H](N)C[C@H]1C(=O)N[C@@H](CC(=O)O)C(=O)N2 [compound 95] | < 100
CC(C)CC1NC(=O)C(Cc2cnc[nH]2)NC(=O)C(Cc2c[nH]c3ccccc23)NC(=O)C(C)NC(=O)C2CSSCC(NC(=O)C(Cc3c[nH]c4ccccc34)NC(=O)C(C(C)C)NC(=O)C(CC(C)C)NC(=O)C(CCC(N)=O)NC(=O)CNC1=O)C(=O)NC(C(C)O)C(=O)N1CCCC1C(=O)N1CC(N)CC1C(=O)NC(CC(=O)O)C(=O)N2 (stereo not drawn) [compound 60] (cyclo(GQLVWCTP[ξPro(4-NH2)]DCAWHL); disulfide 6-11; configuration not given here) | < 100
CC(C)CC1NC(=O)C(Cc2cnc[nH]2)NC(=O)C(Cc2c[nH]c3ccccc23)NC(=O)C(C)NC(=O)C2CSSCC(NC(=O)C(Cc3c[nH]c4ccccc34)NC(=O)C(C(C)C)NC(=O)C(CC(C)C)NC(=O)C(CCC(=O)O)NC(=O)CNC1=O)C(=O)NC(C(C)O)C(=O)N1CCCC1C(=O)N1CC(N)CC1C(=O)NC(CC(N)=O)C(=O)N2 (stereo not drawn) [compound 55] (cyclo(GELVWCTP[ξPro(4-NH2)]NCAWHL); disulfide 6-11; configuration not given here) | < 100
CC(C)C[C@@H]1NC(=O)[C@H](Cc2cnc[nH]2)NC(=O)[C@H](Cc2c[nH]c3ccccc23)NC(=O)[C@H](C)NC(=O)[C@@H]2CC/C=C/C[C@H](NC(=O)[C@H](Cc3c[nH]c4ccccc34)NC(=O)[C@H](C(C)C)NC(=O)[C@H](CC(C)C)NC(=O)[C@H](CCC(=O)O)NC(=O)CNC1=O)C(=O)N[C@@H]([C@@H](C)O)C(=O)N1CCC[C@@H]1C(=O)N1CCC[C@H]1C(=O)N[C@@H](CC(=O)O)C(=O)N2 [compound 99] | < 100
